In ChEMBL document CHEMBL5050832, “Compounds and methods for regulating, limiting, or inhibiting avil expression” (2020):
Activity calls are given as the source filed them. The calls are words filed in the database; no cut-off is given here.

How the values were obtained:
[1] = system: SJRH30; test: Antiproliferative activity against human Rh30 cells; format: functional, cell-based
[2] = system: Mesenchymal stem cells; test: Antiproliferative activity against human mesenchymal stem cells; format: functional, cell-based
[3] = system: Mesenchymal stem cells; test: Antiproliferative activity against human mesenchymal stem cells at 20 uM assessed as decrease in cell number measured by crystal violet staining method relative to control; format: functional, cell-based
[4] = system: RD; test: Antiproliferative activity against human RD cells at 20 uM assessed as decrease in cell number measured by crystal violet staining method relative to control; format: functional, cell-based
[5] = system: SJRH30; test: Antiproliferative activity against human Rh30 cells at 20 uM assessed as decrease in cell number measured by crystal violet staining method relative to control; format: functional, cell-based
[6] = organism: Homo sapiens; test: Binding affinity towards recombinant AVIL (unknown origin) measured by thermal shift assay
[7] = system: RD; test: Antiproliferative activity against human RD cells; format: functional, cell-based
[8] = system: U-87MG ATCC; test: Downregulation of LIN28B expression in human U87 cells measured by qRT-PCR assay; format: functional, cell-based
[9] = Antiproliferative activity against human astrocytes; format: functional, cell-based; conditions: Astrocyte
[10] = system: U-87 MG; test: Antiproliferative activity against human U87 cells; format: functional, cell-based, U-87MG ATCC

Activity [6]	IC50 [10]	Compound	Activity [1]	Activity [2]	Activity [3]	Activity [4]	Activity [5]	Activity [7]	Activity [8]	IC50 [9]
Active	–	Nc1nccc(N2CCCC(CO)(CCCc3ccccc3)C2)n1 (centres undefined)	Active	inactive	inactive	Active	Active	Active	Active	–
Active	–	c1ccc(CCC2CCN(CC3[C@H]4CNC[C@@H]34)CC2)cc1 (some centres undefined)	–	–	–	–	–	–	Active	–
Active	–	CN(Cc1ccc(Oc2ccccc2)cc1)C(=O)[C@@H]1C[C@@H](O)CN1	–	–	–	–	–	–	Active	–
–	8 µM	Cc1cc(N2CCCC(CO)(CCCc3ccccc3)C2)nc(N)n1 (centres undefined)	–	–	–	–	–	–	–	5 µM
